Experimental data from paper PMC7177849, “Gut Microbial Catabolites of Tryptophan Are Ligands and Agonists of the Aryl Hydrocarbon Receptor: A Detailed Characterization” (International Journal of Molecular Sciences, 2020).

Legend:
AhR = target: T1, AhR (Homo sapiens, UniProt P35869); assay: Summary of AhR cell functions (translocation; heterodimerization; DNA-binding) in LS180 cells; assay type: cell-based; set-up: 0.1% V/V), TCDD (10 nM), and test MICT; host or cells: LS180 cells; details: Table 1 summary class
T1 sequence (P35869 11-848): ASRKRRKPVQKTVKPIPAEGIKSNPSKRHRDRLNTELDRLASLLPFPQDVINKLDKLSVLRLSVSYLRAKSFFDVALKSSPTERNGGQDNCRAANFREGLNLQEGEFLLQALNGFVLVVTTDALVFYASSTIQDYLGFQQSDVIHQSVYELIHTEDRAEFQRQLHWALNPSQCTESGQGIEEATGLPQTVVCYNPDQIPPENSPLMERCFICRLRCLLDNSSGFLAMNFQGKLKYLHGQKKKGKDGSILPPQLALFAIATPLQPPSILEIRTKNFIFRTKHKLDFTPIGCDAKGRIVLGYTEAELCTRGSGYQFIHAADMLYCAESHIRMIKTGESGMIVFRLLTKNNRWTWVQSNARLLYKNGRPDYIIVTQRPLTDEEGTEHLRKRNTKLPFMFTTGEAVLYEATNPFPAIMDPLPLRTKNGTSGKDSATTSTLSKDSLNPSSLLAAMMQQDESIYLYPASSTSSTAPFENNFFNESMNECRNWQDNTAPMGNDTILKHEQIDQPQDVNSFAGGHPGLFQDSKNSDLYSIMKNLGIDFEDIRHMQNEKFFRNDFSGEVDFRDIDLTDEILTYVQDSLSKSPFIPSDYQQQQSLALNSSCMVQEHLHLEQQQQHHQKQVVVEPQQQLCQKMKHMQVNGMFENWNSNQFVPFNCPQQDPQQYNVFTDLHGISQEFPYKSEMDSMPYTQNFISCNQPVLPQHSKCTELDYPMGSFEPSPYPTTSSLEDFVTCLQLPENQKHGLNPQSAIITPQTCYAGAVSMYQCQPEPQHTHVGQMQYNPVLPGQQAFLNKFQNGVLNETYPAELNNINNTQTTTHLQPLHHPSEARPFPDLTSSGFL
Procedure: LS180 cells (60,000 cells/well) were plated on 8-well chambered slides (94.6140.802, Sarstedt, Nümbrecht, Germany) and allowed to grow overnight. Then, the cells were incubated with DMSO (0.1% V/V), TCDD (10 nM), IND (1000 µM), IPY (200 µM), 3MI (200 µM), TA (200 µM), IAC (100 µM), and IAD (200 µM). The staining procedure was described in detail elsewhere. The images were captured using an IX73 fluorescence microscope (Olympus, Tokyo, Japan). The immunofluorescence signal intensity (of the AhR antibody) in the nucleus was evaluated visually. For percentage calculation, approximately 500 cells from at least four randomly selected fields of view in each specimen were used.
LS180 cells (4 million) were seeded in a 60-mm dish in Dulbecco’s modified Eagle’s medium (D6546; Sigma Aldrich). The following day, the cells were incubated with DMSO (0.1% V/V), TCDD (10 nM), IND (1000 µM), IPY (200 µM), 3MI (200 µM), TA (200 µM), IAC (100 µM), and IAD (200 µM) for 90 min at 37 °C. ChIP assay was performed as we described in detail elsewhere.
Intestinal LS180 cells were incubated with TCDD, tested MICT, and vehicle (DMSO; 0.1% V/V) for 90 min at 37 °C. The Pierce™ Co-Immunoprecipitation Kit (Thermo Fisher Scientific) with covalently coupled AhR antibody (mouse monoclonal, sc-133088, A-3, Santa Cruz Biotechnology) was used. Eluted protein complexes and total parental lysates were resolved on SDS-PAGE gels followed by Western Blot analysis and immuno-detection with ARNT-1 antibody (mouse monoclonal, sc-17812, G-3, Santa Cruz Biotechnology). Chemiluminescent detection was performed using horseradish peroxidase-conjugated anti-mouse secondary antibody (7076S, Cell Signaling Technology) and WesternSure® PREMIUM Chemiluminescent Substrate (LI-COR Biotechnology) by C-DiGit® Blot Scanner (LI-COR Biotechnology).

CYP1A1 mRNA = assay: Summary of CYP1A1 gene expression in human hepatic and intestinal cells; assay type: cell-based; details: Table 1 summary class; CYP1A1
Procedure: Figure 4 Effects of MICT on the induction of CYP1A1 mRNA in human hepatic and intestinal cells. Cultured cells were incubated for 24 h with the vehicle (DMSO; 0.1% v/v) and tested MICT in the presence or absence of TCDD (10 nM). RT-PCR determined the level of CYP1A1 mRNA, and the data were normalized per GAPDH mRNA level. […] (A,B) Experiments in three consecutive passages of human colon adenocarcinoma cell line LS180 in the absence (A) and the presence (B) of 10 nM TCDD. The bar graphs show the percentage of maximal induction attained by TCDD and are expressed as the mean ± SD. (C) Experiments in three consecutive passages of wild-type (AhR^+/^+) and AhR-knockout (AhR^−/^−) HT-29 cells. […] (D) Primary human hepatocytes from three different donors (LH79, Hep2201020, and Hep2201021).
Total RNA was isolated using TRI Reagent® (Sigma Aldrich, Prague, Czech Republic). cDNA was synthesized using M-MuLV reverse transcriptase (New England Biolabs, Ipswich, MA, USA). The reverse transcription was performed at 42 °C for 60 min using Random Primers 6 (New England Biolabs, Ipswich, MA, USA) and diluted in a 1:4 ratio by PCR-grade water. The quantitative reverse transcriptase-polymerase chain reaction (qRT-PCR) was performed on the Lightcycler 480 II using the LightCycler ® 480 Probes Master (Roche Diagnostic Corporation, Prague, Czech Republic). The levels of CYP1A1 and GAPDH mRNAs were determined using the Universal Probe Library probes (UPL; Roche Diagnostic Corporation, Prague, Czech Republic) in combination with specific primers, using a protocol described elsewhere. All measurements were performed in triplicates, and the gene expression was normalized to glyceraldehyde-3-phosphate dehydrogenase (GAPDH) as a house-keeping gene. The data were processed using the delta-delta Ct method and expressed as a fold induction over the negative control (DMSO) or as a percentage of the positive control (maximal induction by TCDD).

SMILES	AhR Cell Functions (Translocation); Heterodimerization; DNA-Binding (AhR)	Gene Expression (CYP1A1 mRNA)
Cc1c[nH]c2ccccc12 [3MI, skatole]	highly active–all parameters	strong inducer
NCCc1c[nH]c2ccccc12 [TA, tryptamine]	highly active–all parameters	strong inducer
c1ccc2[nH]ccc2c1 [IND, indole]	highly active–all parameters	strong inducer
O=C(O)/C=C/c1c[nH]c2ccccc12 [IAC, indole-3-acrylate]	highly active–all parameters	strong inducer
NC(=O)Cc1c[nH]c2ccccc12 [IAD, indole-3-acetamide]	highly active–all parameters	strong inducer
O=C(O)C(O)Cc1c[nH]c2ccccc12 (stereo not drawn) [ILA, indole-3-lactate]	–	inactive
O=Cc1c[nH]c2ccccc12 [IA, indole-3-aldehyde]	–	inactive
O=C(O)C(=O)Cc1c[nH]c2ccccc12 [IPY, indole-3-pyruvate]	highly active–all parameters	strong inducer
OCCc1c[nH]c2ccccc12 [IET, indole-3-ethanol]	–	inactive
